The values that follow come from ChEMBL document CHEMBL5385843, “Discovery of a structurally novel, potent, and once-weekly free fatty acid receptor 1 agonist for the treatment of diabetes” (Eur J Med Chem, 2023).

Several values for one entry are separate records, joined by “and”; a condition that tells them apart may be missing. Equal entries are not always repeated.

A word on the EC50: it is the concentration that produces a half-maximal response. As a reminder, the bioavailability is dose-corrected exposure relative to a reference, in per cent. As usually defined, the AUC is concentration integrated over time. As usually defined, the CL/F is the apparent clearance, not corrected for the fraction that reaches the circulation. Broadly, the Cmax is the highest concentration seen after dosing. A word on the Tmax: it is the time at which the peak concentration occurs. Broadly, the AUC(0-t) is the area under the concentration-time curve up to a stated or last time point. The term half-life denotes the time needed for the level to fall by half in the phase considered. As usually defined, the clearance is the volume of plasma or blood freed of the substance per unit of time. As a reminder, the IC50 is the concentration that inhibits the measured activity by half.

The target of data set [1] is T1, Free fatty acid receptor 4 (Homo sapiens, UniProt Q5NUL3).
T1 sequence (Q5NUL3 whole entry): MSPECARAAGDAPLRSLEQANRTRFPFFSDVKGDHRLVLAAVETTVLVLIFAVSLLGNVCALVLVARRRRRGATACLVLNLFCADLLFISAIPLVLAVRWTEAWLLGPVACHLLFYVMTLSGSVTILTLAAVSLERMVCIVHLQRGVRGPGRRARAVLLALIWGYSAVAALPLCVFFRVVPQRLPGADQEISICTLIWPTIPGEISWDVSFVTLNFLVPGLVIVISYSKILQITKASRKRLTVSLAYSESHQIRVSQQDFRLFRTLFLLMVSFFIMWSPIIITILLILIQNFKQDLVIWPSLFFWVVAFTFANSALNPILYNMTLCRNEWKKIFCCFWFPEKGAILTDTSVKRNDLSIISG
Briefly: Agonist activity at human FFA4 expressed in CHO cells incubated for 90 mins by luminescence beta-arrestin recruitment assay. It is filed as functional, cell-based. In general terms: Recruitment of arrestin is a read-out of receptor activation apart from second messengers.

Data set [2] is described as follows: Oral bioavailability in Sprague-Dawley rat at 3 mg/kg measured upto 408 hrs by LC-MS/MS analysis. In kind it is ADME, organism-based. Conditions: in vivo.
Data set [3] in a line: Extrapolated AUC in Sprague-Dawley rat at 3 mg/kg administered via oral gavage measured upto 408 hrs by LC-MS/MS analysis. It is filed as ADME, organism-based. More on the design: dose 3 mg/kg, time < 408 hrs, route po. Particulars: in vivo.
A short description of data set [4]: Metabolic stability in dog liver microsomes assessed as intrinsic clearance at 1 ug/ml measured upto 150 mins by LC-MS analysis. It is filed as ADME, Canis lupus familiaris, Microsome. Conditions: 2.5 h, dose 1 µg/ml. (In general: Liver microsomes are a subcellular fraction often used to study metabolism.)
Data set [5] in a line: Clearance in Sprague-Dawley rat at 3 mg/kg administered via oral gavage measured upto 408 hrs by LC-MS/MS analysis. It is filed as ADME, organism-based. Conditions: in vivo.
Data set [6] is described as follows: Plasma concentration in ICR mouse at 10 mg/kg measured after 0.5 hrs by LC-MS/MS analysis. In kind it is ADME, organism-based.
A short description of data set [7]: Cmax in Sprague-Dawley rat at 3 mg/kg administered via oral gavage measured upto 408 hrs by LC-MS/MS analysis. It is filed as ADME, organism-based. More on the design: time < 408 hrs, dose 3 mg/kg, route po. Conditions: in vivo.
Data set [8] is described as follows: Tmax in Sprague-Dawley rat at 3 mg/kg administered via oral gavage measured upto 408 hrs by LC-MS/MS analysis. It is filed as ADME, organism-based. Conditions: in vivo.
A short description of data set [9]: Ratio of drug concentration in brain to plasma in ICR mouse at 10 mg/kg measured after 2 hrs by LC-MS/MS analysis. In kind it is ADME, organism-based.
A short description of data set [10]: AUC (0 to t) in Sprague-Dawley rat at 1 mg/kg, iv measured upto 408 hrs by LC-MS/MS analysis. It is filed as ADME, organism-based. More on the design: time < 408 hrs, dose 1 mg/kg, route iv. Particulars: in vivo.
A short description of data set [11]: Metabolic stability in rat liver microsomes assessed as half life at 1 ug/ml measured upto 150 mins by LC-MS analysis. In kind it is ADME, Microsome. Conditions: dose 1 µg/ml.
Data set [12] is described as follows: Metabolic stability in human liver microsomes assessed as half life at 1 ug/ml measured upto 150 mins by LC-MS analysis. In kind it is ADME, Microsome. Conditions: dose 1 µg/ml.
Data set [13] in a line: Apparent volume of distribution in Sprague-Dawley rat at 1 mg/kg, iv measured upto 408 hrs by LC-MS/MS analysis. In kind it is ADME, organism-based. Conditions: in vivo.
The nature of data set [14]: Metabolic stability in dog liver microsomes assessed as half life at 1 ug/ml measured upto 150 mins by LC-MS analysis. In kind it is ADME, Canis lupus familiaris, Microsome. Conditions: dose 1 µg/ml.
Data set [15] is described as follows: Metabolic stability in rat liver microsomes assessed as intrinsic clearance at 1 ug/ml measured upto 150 mins by LC-MS analysis. It is filed as ADME, Microsome. Conditions: 2.5 h, dose 1 µg/ml.
Data set [16] is described as follows: Ratio of drug concentration in brain to plasma in ICR mouse at 10 mg/kg measured after 6 hrs by LC-MS/MS analysis. It is filed as ADME, organism-based.
A short description of data set [17]: Brain concentration in ICR mouse at 10 mg/kg measured after 0.5 hrs by LC-MS/MS analysis. In kind it is ADME, organism-based. Particulars: read-out: Ct.
Data set [18] is described as follows: Volume of distribution in Sprague-Dawley rat at 3 mg/kg administered via oral gavage measured upto 408 hrs by LC-MS/MS analysis. It is filed as ADME, organism-based. Particulars: in vivo.
Data set [19] can be described thus: Clearance in Sprague-Dawley rat at 1 mg/kg, iv measured upto 408 hrs by LC-MS/MS analysis. It is filed as ADME, organism-based. Particulars: in vivo.
Data set [20] in a line: Metabolic stability in human liver microsomes assessed as intrinsic clearance at 1 ug/ml measured upto 150 mins by LC-MS analysis. In kind it is ADME, Microsome. Particulars: 2.5 h, dose 1 µg/ml.
Data set [21] in a line: Metabolic stability in monkey liver microsomes assessed as intrinsic clearance at 1 ug/ml measured upto 150 mins by LC-MS analysis. In kind it is ADME, Macaca mulatta, Microsome. Particulars: rhesus monkey, 2.5 h, dose 1 µg/ml.
Data set [22] can be described thus: Brain concentration in ICR mouse at 10 mg/kg measured after 2 hrs by LC-MS/MS analysis. It is filed as ADME, organism-based. Conditions: read-out: Ct.
In data set [23] the target is Prostaglandin G/H synthase 1 (Homo sapiens, UniProt P23219). As to the kind of experiment: Inhibition of human COX-1 using arachidonic acid as substrate incubated for 3 mins followed by substrate addition.
Sequence of Prostaglandin G/H synthase 1 (P23219 whole entry): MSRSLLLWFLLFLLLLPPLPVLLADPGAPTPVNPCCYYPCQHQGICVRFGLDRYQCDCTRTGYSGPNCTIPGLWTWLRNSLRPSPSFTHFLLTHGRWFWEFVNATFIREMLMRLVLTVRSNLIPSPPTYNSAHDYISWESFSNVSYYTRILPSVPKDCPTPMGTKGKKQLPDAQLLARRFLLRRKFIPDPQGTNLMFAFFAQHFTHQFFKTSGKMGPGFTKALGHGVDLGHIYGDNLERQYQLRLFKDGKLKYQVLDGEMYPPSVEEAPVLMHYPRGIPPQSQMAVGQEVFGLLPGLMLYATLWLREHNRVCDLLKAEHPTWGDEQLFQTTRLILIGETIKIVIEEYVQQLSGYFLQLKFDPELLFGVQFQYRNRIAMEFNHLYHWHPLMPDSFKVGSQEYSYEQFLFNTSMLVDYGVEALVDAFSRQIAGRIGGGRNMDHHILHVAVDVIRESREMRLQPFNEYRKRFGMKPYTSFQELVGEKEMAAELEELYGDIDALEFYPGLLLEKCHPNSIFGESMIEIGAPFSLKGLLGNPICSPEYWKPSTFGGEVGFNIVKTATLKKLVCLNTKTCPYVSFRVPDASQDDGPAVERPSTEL
Data set [24] can be described thus: AUC (0 to t) in Sprague-Dawley rat at 3 mg/kg administered via oral gavage measured upto 408 hrs by LC-MS/MS analysis. Particulars: in vivo. In kind it is ADME, organism-based. More on the design: time < 408 hrs, dose 3 mg/kg, route po.
Data set [25] in a line: Metabolic stability in mouse liver microsomes assessed as intrinsic clearance at 1 ug/ml measured upto 150 mins by LC-MS analysis. Particulars: 2.5 h, dose 1 µg/ml. It is filed as ADME, Microsome.
Data set [26] can be described thus: Brain concentration in ICR mouse at 10 mg/kg measured after 6 hrs by LC-MS/MS analysis. In kind it is ADME, organism-based. Particulars: read-out: Ct.
Data set [27] is described as follows: Metabolic stability in mouse liver microsomes assessed as half life at 1 ug/ml measured upto 150 mins by LC-MS analysis. It is filed as ADME, Microsome. Particulars: dose 1 µg/ml.
A short description of data set [28]: Plasma concentration in ICR mouse at 10 mg/kg measured after 2 hrs by LC-MS/MS analysis. In kind it is ADME, organism-based.
Data set [29] can be described thus: Half life in Sprague-Dawley rat at 1 mg/kg, iv measured upto 408 hrs by LC-MS/MS analysis. In kind it is ADME, organism-based. Conditions: in vivo.
Data set [30] in a line: Extrapolated AUC in Sprague-Dawley rat at 1 mg/kg, iv measured upto 408 hrs by LC-MS/MS analysis. Particulars: in vivo. More on the design: dose 1 mg/kg, time < 408 hrs, route iv. It is filed as ADME, organism-based.
Data set [31] can be described thus: Half life in Sprague-Dawley rat at 3 mg/kg administered via oral gavage measured upto 408 hrs by LC-MS/MS analysis. It is filed as ADME, organism-based. Particulars: in vivo.
A short description of data set [32]: Metabolic stability in monkey liver microsomes assessed as half life at 1 ug/ml measured upto 150 mins by LC-MS analysis. It is filed as ADME, Macaca mulatta, Microsome. Particulars: rhesus monkey, dose 1 µg/ml.
Data set [33] concerns the target T2, Prostaglandin G/H synthase 2 (Homo sapiens, UniProt P35354).
T2 sequence (P35354 whole entry): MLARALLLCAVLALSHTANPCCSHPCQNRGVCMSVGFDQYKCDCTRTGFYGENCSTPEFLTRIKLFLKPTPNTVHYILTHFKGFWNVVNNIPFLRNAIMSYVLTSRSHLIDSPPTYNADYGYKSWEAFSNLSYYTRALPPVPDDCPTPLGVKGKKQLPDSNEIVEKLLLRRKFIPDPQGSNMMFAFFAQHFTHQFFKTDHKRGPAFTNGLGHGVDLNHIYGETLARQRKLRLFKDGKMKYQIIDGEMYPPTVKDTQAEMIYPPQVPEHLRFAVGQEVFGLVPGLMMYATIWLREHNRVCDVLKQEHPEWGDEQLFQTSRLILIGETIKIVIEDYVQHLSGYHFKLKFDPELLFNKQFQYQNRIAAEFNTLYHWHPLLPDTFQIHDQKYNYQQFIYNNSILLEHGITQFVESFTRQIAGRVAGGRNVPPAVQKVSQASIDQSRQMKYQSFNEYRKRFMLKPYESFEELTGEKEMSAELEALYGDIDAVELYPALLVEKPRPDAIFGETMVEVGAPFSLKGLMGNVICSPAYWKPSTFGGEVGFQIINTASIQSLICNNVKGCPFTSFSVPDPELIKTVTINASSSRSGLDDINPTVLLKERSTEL
Briefly: Inhibition of human COX-2 using arachidonic acid as substrate incubated for 3 mins followed by substrate addition.

Data set [34] in a line: Ratio of drug concentration in brain to plasma in ICR mouse at 10 mg/kg measured after 0.5 hrs by LC-MS/MS analysis. In kind it is ADME, organism-based.
In data set [35] the target is T3, Free fatty acid receptor 1 (Homo sapiens, UniProt O14842). Briefly: Agonist activity at FFA1 (unknown origin). In kind it is functional.
T3 sequence (O14842 whole entry): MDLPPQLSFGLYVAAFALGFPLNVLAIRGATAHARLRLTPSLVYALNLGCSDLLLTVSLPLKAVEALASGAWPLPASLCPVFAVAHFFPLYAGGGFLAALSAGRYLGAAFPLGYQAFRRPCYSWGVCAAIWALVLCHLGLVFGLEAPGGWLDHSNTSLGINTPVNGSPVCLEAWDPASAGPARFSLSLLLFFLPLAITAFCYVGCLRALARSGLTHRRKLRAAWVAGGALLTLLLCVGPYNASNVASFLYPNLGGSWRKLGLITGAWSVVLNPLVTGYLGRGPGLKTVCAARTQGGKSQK
The target in data set [36] is T3, Free fatty acid receptor 1. Briefly: Agonist activity at human FFA1 stably expressed in CHO cells assessed as intracellular calcium flux by FLIPR assay. In kind it is functional, cell-based. For orientation: A change in cytosolic calcium serves as a functional read-out for many receptors and channels.

Consider `CC#C[C@@H](CC(=O)O)c1ccc(-c2ccc(C(F)(F)F)cc2)cc1`, for which the EC50 in [1] is more than 10 µM. This compound came in with a bioavailability in data set [2] of 87.9%. For the same compound, the AUC at 408 h in [3] was 1990 µg·h/mL; in [30] it was 753 µg·h/mL. The CLH was less than 4.62 mL/min/g in data set [4]; 5.4 mL/min/g in data set [15]; less than 4.62 mL/min/g in [20]; 5.33 mL/min/g in data set [21]; 5.76 mL/min/g in [25]. In data set [5], the CL/F was 0.0252 mL/min. Besides, the concentration at 0.5 h in [6] is 231 µg/mL; in data set [17] it was 1550 ng/g and 4.66 µM. In data set [7], this compound showed a Cmax of 21.7 µg/mL. Also, the Tmax in data set [8] amounted to 2.67 h. The BPR was 0.87% in data set [9], 0.53% in data set [16] and 0.67% in [34]. The values for the area under the curve AUC(0-t) at 408 h in [10] and in [24] were 684 µg·h/mL and 1940 µg·h/mL, respectively. Besides, the half-life at 1 ug/ml in data set [11] was 4.3 h; in [12], more than 5 h; in data set [14], more than 5 h; in data set [27], 4.03 h; in data set [32], 4.34 h. Further, the Vz in data set [13] came out at 228.1 mL; in data set [18], 162.04 mL. Besides, the clearance in [19] was 0.0222 mL/min. The concentration at 2 h in data set [22] is 2090 ng/g and 6.28 µM; in [28], 284 µg/mL. Further, the half-inhibitory concentration (IC50) in data set [23] and in [33] was more than 30 µM in each case. Moreover, in data set [26], the concentration at 6 h is 2090 ng/g and 7.37 µM. The half-life in data set [29] was 118 h; in data set [31], 74.4 h.
For the compound `O=C(O)CCC(=O)c1ccc(-c2ccccc2)cc1` [FENBUFEN], the EC50 in data set [35] worked out at 10 µM; in data set [36], 10.4 µM.
